These results are taken from US20130095605A1, “LEAVING SUBSTITUENT-CONTAINING COMPOUND, ORGANIC SEMICONDUCTOR MATERIAL FORMED THEREFROM, ORGANIC ELECTRONIC DEVICE, ORGANIC THIN-FILM TRANSISTOR AND DISPLAY DEVICE USING THE ORGANIC SEMICONDUCTOR MATERIAL, METHOD FOR PRODUCING FILM-LIKE PRODUCT, PI-ELECTRON CONJUGATED COMPOUND AND METHOD FOR …” (RICOH COMPANY, LTD., priority 2010, published 2013).

One series in a line: Evaluation of dissolvability (saturated solution in organic solvent). Type of series: physicochemical. The settings on record: Anisole; reflux 10 min, cooled to room temperature, left 16 hours, filtrated. As for the experimental part: Each of the compounds obtained in Examples 1, 3, 5, 6, 7, 8, 9, 10, 11 and 12 and the corresponding specific compounds (24) to (33) was added to toluene, THF, anisole or chloroform (each: […]) until insoluble matter was found. The resultant mixture was stirred for 10 min under reflux of the solvent and cooled to room temperature, followed by stirring for 1 hour. After the mixture had been left to stand still for 16 hours, the supernatant was filtrated with a 0.2 μm PTFE filter to obtain a saturated solution. The obtained solution was dried under reduced pressure to calculate the dissolvability of the compound to each solvent.
The evaluation criteria in Table 1 are as follows.
A: 0.5% by mass≦Dissolvability B: 0.1% by mass≦Dissolvability<0.5% by mass C: 0.005% by mass≦Dissolvability<0.1% by mass D: Dissolvability<0.005% by mass
With `c1ccc2cc(-c3cc4sc(-c5ccc6ccccc6c5)cc4s3)ccc2c1` [Compound (24)], the “Dissolvability, solvent Anisole” value was “D (Dissolvability<0.005% by mass)”.

For the compound `c1ccc2c(c1)ccc1c3cc4sc5c6ccccc6ccc5c4cc3sc21` [Compound (25)], the “Dissolvability, solvent Anisole” value is given as “D (Dissolvability<0.005% by mass)”.

As to `c1ccc2c(c1)ccc1cc3ccc4c5c(ccc6ccccc65)cc5ccc(c12)c3c54` [Compound (26)], the “Dissolvability, solvent Anisole” value is “D (Dissolvability<0.005% by mass)”.

With `c1ccc2c(c1)ccc1c3cc4ccc5c6ccccc6ccc5c4cc3ccc21` [Compound (27)], the “Dissolvability, solvent Anisole” value is listed as “D (Dissolvability<0.005% by mass)”.

For the compound `c1cc2ccc3cc4ccc5cc6c(ccc7cc8ccc9cccc%10ccc(c76)c8c9%10)cc5c4c4ccc(c1)c2c34` [Compound (28)], the “Dissolvability, solvent Anisole” value was “D (Dissolvability<0.005% by mass)”.

Take `c1ccc2cc3c(ccc4c3ccc3c4ccc4c5ccc6cc7ccccc7cc6c5ccc43)cc2c1` [Compound (29)]: the “Dissolvability, solvent Anisole” value is “D (Dissolvability<0.005% by mass)”.

Consider `C(#Cc1cc2sc3cc4c(cc3c2s1)sc1cc(C#Cc2ccc3ccccc3c2)sc14)c1ccc2ccccc2c1` [Compound (30)], for which the “Dissolvability, solvent Anisole” value was “D (Dissolvability<0.005% by mass)”.

As for `C(#Cc1ccc2c(ccc3cc(C#Cc4ccccc4)ccc32)c1)c1ccccc1` [Compound (31)], the “Dissolvability, solvent Anisole” value is given as “C (0.005% by mass≦Dissolvability<0.1% by mass)”.

In the case of `COC1CC=Cc2ccc(-c3cc4sc(-c5ccc6c(c5)C(OC)CC=C6)cc4s3)cc21` (stereo not shown) [Ex. 3 compound], the “Dissolvability, solvent Anisole” value is on record as “B (0.1% by mass≦Dissolvability<0.5% by mass)”.

Turning to `CCCCC(CC)C(=O)OC1Cc2ccccc2-c2c1cc1ccc3c4c(cc5ccc2c1c53)C(OC(=O)C(CC)CCCC)Cc1ccccc1-4` (stereo not shown) [Ex. 7 compound], the “Dissolvability, solvent Anisole” value is “B (0.1% by mass≦Dissolvability<0.5% by mass)”.

As for `CC(C)(C)C(=O)OC1Cc2cc3c(cc2-c2ccc4ccccc4c21)CC(OC(=O)C(C)(C)C)c1c-3ccc2ccccc12` (stereo not shown) [Ex. 8 compound], the “Dissolvability, solvent Anisole” value was “A (0.5% by mass≦Dissolvability)”.

For `CCCCCC(=O)OC1CC=Cc2cc3c(ccc4c3ccc3c4ccc4c5ccc6cc7c(cc6c5ccc43)C=CCC7OC(=O)CCCCC)cc21` (stereo not shown) [Ex. 10 compound], the “Dissolvability, solvent Anisole” value is recorded as “B (0.1% by mass≦Dissolvability<0.5% by mass)”.

With `CCCCCC(=O)OC1Cc2cc(C#Cc3ccccc3)ccc2-c2ccc(C#Cc3ccccc3)cc21` (stereo not shown) [Ex. 12 compound], the “Dissolvability, solvent Anisole” value is recorded as “A (0.5% by mass≦Dissolvability)”.

Staying with this series, now noted: THF; reflux 10 min, cooled to room temperature, left 16 hours, filtrated.
Turning to `c1ccc2cc(-c3cc4sc(-c5ccc6ccccc6c5)cc4s3)ccc2c1` [Compound (24)], the “Dissolvability, solvent THF” value was “D (Dissolvability<0.005% by mass)”.

Regarding `c1ccc2c(c1)ccc1c3cc4sc5c6ccccc6ccc5c4cc3sc21` [Compound (25)], the “Dissolvability, solvent THF” value is “D (Dissolvability<0.005% by mass)”.

For the compound `c1ccc2c(c1)ccc1cc3ccc4c5c(ccc6ccccc65)cc5ccc(c12)c3c54` [Compound (26)], the “Dissolvability, solvent THF” value was “D (Dissolvability<0.005% by mass)”.

As for `c1ccc2c(c1)ccc1c3cc4ccc5c6ccccc6ccc5c4cc3ccc21` [Compound (27)], the “Dissolvability, solvent THF” value is “D (Dissolvability<0.005% by mass)”.

Regarding `c1cc2ccc3cc4ccc5cc6c(ccc7cc8ccc9cccc%10ccc(c76)c8c9%10)cc5c4c4ccc(c1)c2c34` [Compound (28)], the “Dissolvability, solvent THF” value is listed as “D (Dissolvability<0.005% by mass)”.

For the compound `c1ccc2cc3c(ccc4c3ccc3c4ccc4c5ccc6cc7ccccc7cc6c5ccc43)cc2c1` [Compound (29)], the “Dissolvability, solvent THF” value was “D (Dissolvability<0.005% by mass)”.

Consider `C(#Cc1cc2sc3cc4c(cc3c2s1)sc1cc(C#Cc2ccc3ccccc3c2)sc14)c1ccc2ccccc2c1` [Compound (30)], for which the “Dissolvability, solvent THF” value is given as “D (Dissolvability<0.005% by mass)”.

Consider `C(#Cc1ccc2c(ccc3cc(C#Cc4ccccc4)ccc32)c1)c1ccccc1` [Compound (31)], for which the “Dissolvability, solvent THF” value is reported as “B (0.1% by mass≦Dissolvability<0.5% by mass)”.

For the compound `COC1CC=Cc2ccc(-c3cc4sc(-c5ccc6c(c5)C(OC)CC=C6)cc4s3)cc21` (stereo not shown) [Ex. 3 compound], the “Dissolvability, solvent THF” value is recorded as “A (0.5% by mass≦Dissolvability)”.

Take `CCCCC(CC)C(=O)OC1Cc2ccccc2-c2c1cc1ccc3c4c(cc5ccc2c1c53)C(OC(=O)C(CC)CCCC)Cc1ccccc1-4` (stereo not shown) [Ex. 7 compound]: the “Dissolvability, solvent THF” value is on record as “A (0.5% by mass≦Dissolvability)”.

Take `CC(C)(C)C(=O)OC1Cc2cc3c(cc2-c2ccc4ccccc4c21)CC(OC(=O)C(C)(C)C)c1c-3ccc2ccccc12` (stereo not shown) [Ex. 8 compound]: the “Dissolvability, solvent THF” value is recorded as “A (0.5% by mass≦Dissolvability)”.

For the compound `CCCCCC(=O)OC1CC=Cc2cc3c(ccc4c3ccc3c4ccc4c5ccc6cc7c(cc6c5ccc43)C=CCC7OC(=O)CCCCC)cc21` (stereo not shown) [Ex. 10 compound], the “Dissolvability, solvent THF” value was “A (0.5% by mass≦Dissolvability)”.

For the compound `CCCCCC(=O)OC1Cc2cc(C#Cc3ccccc3)ccc2-c2ccc(C#Cc3ccccc3)cc21` (stereo not shown) [Ex. 12 compound], the “Dissolvability, solvent THF” value was “A (0.5% by mass≦Dissolvability)”.

The same series, now with this note: Toluene; reflux 10 min, cooled to room temperature, left 16 hours, filtrated.
As for `c1ccc2cc(-c3cc4sc(-c5ccc6ccccc6c5)cc4s3)ccc2c1` [Compound (24)], the “Dissolvability, solvent Toluene” value was “D (Dissolvability<0.005% by mass)”.

For the compound `c1ccc2c(c1)ccc1c3cc4sc5c6ccccc6ccc5c4cc3sc21` [Compound (25)], the “Dissolvability, solvent Toluene” value was “D (Dissolvability<0.005% by mass)”.

With `c1ccc2c(c1)ccc1cc3ccc4c5c(ccc6ccccc65)cc5ccc(c12)c3c54` [Compound (26)], the “Dissolvability, solvent Toluene” value is “D (Dissolvability<0.005% by mass)”.

Consider `c1ccc2c(c1)ccc1c3cc4ccc5c6ccccc6ccc5c4cc3ccc21` [Compound (27)], for which the “Dissolvability, solvent Toluene” value is given as “D (Dissolvability<0.005% by mass)”.

For `c1cc2ccc3cc4ccc5cc6c(ccc7cc8ccc9cccc%10ccc(c76)c8c9%10)cc5c4c4ccc(c1)c2c34` [Compound (28)], the “Dissolvability, solvent Toluene” value is on record as “D (Dissolvability<0.005% by mass)”.

`c1ccc2cc3c(ccc4c3ccc3c4ccc4c5ccc6cc7ccccc7cc6c5ccc43)cc2c1` [Compound (29)]: the “Dissolvability, solvent Toluene” value is “D (Dissolvability<0.005% by mass)”.

`C(#Cc1cc2sc3cc4c(cc3c2s1)sc1cc(C#Cc2ccc3ccccc3c2)sc14)c1ccc2ccccc2c1` [Compound (30)]: the “Dissolvability, solvent Toluene” value is on record as “D (Dissolvability<0.005% by mass)”.

As to `C(#Cc1ccc2c(ccc3cc(C#Cc4ccccc4)ccc32)c1)c1ccccc1` [Compound (31)], the “Dissolvability, solvent Toluene” value is recorded as “C (0.005% by mass≦Dissolvability<0.1% by mass)”.

In the case of `COC1CC=Cc2ccc(-c3cc4sc(-c5ccc6c(c5)C(OC)CC=C6)cc4s3)cc21` (stereo not shown) [Ex. 3 compound], the “Dissolvability, solvent Toluene” value is “A (0.5% by mass≦Dissolvability)”.

Regarding `CCCCC(CC)C(=O)OC1Cc2ccccc2-c2c1cc1ccc3c4c(cc5ccc2c1c53)C(OC(=O)C(CC)CCCC)Cc1ccccc1-4` (stereo not shown) [Ex. 7 compound], the “Dissolvability, solvent Toluene” value is given as “B (0.1% by mass≦Dissolvability<0.5% by mass)”.

Turning to `CC(C)(C)C(=O)OC1Cc2cc3c(cc2-c2ccc4ccccc4c21)CC(OC(=O)C(C)(C)C)c1c-3ccc2ccccc12` (stereo not shown) [Ex. 8 compound], the “Dissolvability, solvent Toluene” value is recorded as “A (0.5% by mass≦Dissolvability)”.

Turning to `CCCCCC(=O)OC1CC=Cc2cc3c(ccc4c3ccc3c4ccc4c5ccc6cc7c(cc6c5ccc43)C=CCC7OC(=O)CCCCC)cc21` (stereo not shown) [Ex. 10 compound], the “Dissolvability, solvent Toluene” value is “B (0.1% by mass≦Dissolvability<0.5% by mass)”.

As to `CCCCCC(=O)OC1Cc2cc(C#Cc3ccccc3)ccc2-c2ccc(C#Cc3ccccc3)cc21` (stereo not shown) [Ex. 12 compound], the “Dissolvability, solvent Toluene” value is reported as “A (0.5% by mass≦Dissolvability)”.

The nature of the next series: Solubility of annealed thin film in solvents. The following applies: chloroform, THF, toluene, etc. at 25° C.; film after annealing 30 min at 150° C. Type of series: physicochemical. As for the experimental part:
Each (5 mg) of Ex. 1 compound and Ex. 2 compound synthesized in Synthesis Examples 1 and 2 was dissolved in THF, so that the concentration of the compound became 0.1% by mass, and the mixture was filtrated using a 0.2 μm-filter to prepare a solution. Onto a N-type silicon substrate having a 300 nm-thick thermally-oxidized film, which had been soaked in concentrated sulfuric acid for 24 hours, 100 μL of the prepared solution was added dropwise with a pipette, and a […] liquid droplet of the prepared solution was jetted 50 times using an inkjet apparatus (head; product of Ricoh Printing Systems, Ltd.). The thus-treated substrate was covered with a petri dish and left to stand still until the solvent was evaporated to thereby form a thin film. […] Next, the thin film was subjected to annealing for 30 min at 150° C. in an argon atmosphere.
After annealing, a plurality of colored domains were observed under the polarization microscope, and it was confirmed that a smooth and crystalline film was obtained. These films were obtained because each of Ex. 1 compound and Ex. 2 compound serving as precursors lost an ester group (i.e., a soluble group) and converted to Compound 24 having stronger intermolecular interaction, and became crystalline in the film. The thin film was insoluble in chloroform, THF, toluene, etc. at 25° C.
For the compound `c1ccc2cc(-c3cc4sc(-c5ccc6ccccc6c5)cc4s3)ccc2c1` [Compound (24)], the “solubility of thin film” value was “insoluble”.
